Experimental data published in patent publication US5656722A, “A^21 -, B^30 - modified insulin derivatives having an altered action profile” (Hoechst Aktiengesellschaft, priority 1988, dated 1997).

Assays:
dogs = assay: Action profile (blood glucose) of insulin compositions in dogs; type: in vivo
Method: D) Action Profile of an Asp^A21 -Human Insulin-Arg^B31 -Arg^B32-OH Composition in dogs by comparison with human insulin-Arg^B31 -Arg^B32 -OH and basal H insulin Hoechst^(R) =an NPH (neutral protamine Hagedorn) composition containing about 10 μg of Zn^2+.

[1] = pH 4
Method: 18 mg of glycerol, 10 mg of benzyl alcohol, 80 μg of Zn^2+, pH 4.0.

[2] = measured by isoelectric focusing; cited from earlier work

| Substance | Blood glucose as a % of the initial level (dogs; 1 h) | Blood glucose as a % of the initial level (dogs; 2 h) | Blood glucose as a % of the initial level (dogs; 3 h) | Blood glucose as a % of the initial level (dogs; 5 h) | Blood glucose as a % of the initial level (dogs; 7 h) | Action profile (basal profile) (dogs; compared with human insulin-Arg^B31 -Arg^B32 -OH) | Stability [1] | Isoelectric point [2] |
| --- | --- | --- | --- | --- | --- | --- | --- | --- |
| Asp^A21 -Human Insulin-Arg^B31 -Arg^B32 -OH | 99% | 62% | 51% | 75% | 98% | same advantageous basal profile as human insulin-Arg^B31 -Arg^B32 -OH | stable for a long time under the chosen conditions |  |
| human insulin-Arg^B31 -Arg^B32 -OH [Human insulin Arg^B31 --Arg^B32 --OH, reference compound] | 77% | 52% | 64% | 85% | 98% |  |  |  |
| proinsulin: proinsulin |  |  |  |  |  |  |  | 5.4 pH |
